Measured values reported in US9029345B2, “Selective inhibitors of translesion DNA replication” (Case Western Reserve University, priority 2005, dated 2015).
Values belong to the compound of their own block, whether it stands above or below them.

How the values were obtained:
P-gp [1] = biological target: T1, P-gp (Homo sapiens, UniProt P08183); test: control experiments: potentiation of other chemotherapeutic agents; settings: does not inhibit P-gp
P-glycoprotein [2] = biological target: T2, P-glycoprotein (Homo sapiens, UniProt P08183); test: export of Hoechst dye from CEM/VBL cells overexpressing P-gp; assay type: cell-based; settings: sub-lethal concentration, compared to untreated CEM/VBL
T2 construct: endogenous in cells; host or cells: CEM/VBL (CEM-VBL) leukemia cells
Text: (§1) This was first determined using the NIMH Psychoactive Drug Screening Program (PDSP) which performs pharmacological and functional screens of novel compounds. This initial screening effort lead us to test the ability of 5-CHInd to block the export of Hoechst dye, a known substrate for P-gp. Control experiments verify that CEM cells not overexpressing p-glycoprotein show accumulation of the Hoechst dye as indicated by nuclear staining (FIG. 3A).

P-glycoprotein [3] = biological target: T2, P-glycoprotein; test: NIMH Psychoactive Drug Screening Program (PDSP) screen; settings: first determined using PDSP
Text: as §1

SKOV3 cells = test: potentiation of vinblastine in SKOV3 cells; assay type: cell-based; settings: 25 or 50 μg/ml 5-CHInd with 0.5 or 1 μg/ml vinblastine
Description: (§2) The potentiation of vinblstine by 5-CHInd was also assessed in MDR negative cesll (SKOV3) and MDR positive SKOV/VBL cells by administering various concentrations of vinblastine and 5-CHInd to the cells. FIG. 6 is a graph illustrating the cytoxic effect of 25 μg/ml of 5-CHInd (CH25), 50 μg/ml of 5-CHInd (CH50), 0.5 μg/ml of vinblastine (VinB 0.5), 1 μg/ml of vinblastine (VinB 1), 25 μg/ml of 5-CHInd in combination with 0.5 μg/ml of vinblastine (CH25+VinB 0.5), 25 μg/ml of 5-CHInd in combination with 1 μg/ml of vinblastine (CH25+VinB 1), 50 μg/ml of 5-CHInd in combination with 0.5 μg/ml of vinblastine (CH50+VinB 0.5), and 50 μg/ml of 5-CHInd in combination with 1 μg/ml of vinblastine (CH50+VinB 1) administered respectively to SKOV3 and SKOV/VBL cells.

SKOV/VBL cells = test: potentiation of vinblastine in SKOV/VBL cells; assay type: cell-based; settings: 25 or 50 μg/ml 5-CHInd with 0.5 or 1 μg/ml vinblastine
Description: as §2

CEM-C7 cells = test: intracellular [3H]-vinblastine accumulation and efflux in CEM-C7 cells; assay type: cell-based; settings: devoid of P-gp
CDKs = test: flow cytometry, cell cycle; assay type: cell-based; settings: preliminary flow cytometry data
P-gp [4] = biological target: T1, P-gp
P-gp [5] = biological target: T1, P-gp; test: intracellular [3H]-vinblastine accumulation and efflux in CEM-VBL cells; assay type: cell-based; design: endogenous in cells
Description: Intracellular drug accumulation studies use confluent CEM-C7 and CEM-VBL cells incubated with [^3H]-vinblastine (Moravek Biochemicals, Brea, Calif.) in the absence or presence of 5-CHInd. After attainment of equilibrium, cells are harvested and washed to remove any unbound [^3H]-vinblastine. Washed cells are then solubized and the retained radioactivity is quantified by liquid scintillation techniques. Measured radioactivity is normalized for protein content, and drug accumulation is expressed as a percentage of the vehicle control.
To measure the effect of 5-CHInd on the efflux of [^3H]-vinblastine, CEM-VBL cells are incubated with a sub-lethal dose of 5-CHInd or vehicle (DMSO) followed by the addition of a fixed concentration of [^3H]-vinblastine. After attainment of equilibrium, cells are washed and aliquots are analyzed for [^3H]-vinblastine accumulation at variable times (5 to 120 minutes). The efflux rate constant is obtained from a fit of the data to y=Ae^−kt where y is the amount of radioactivity at time t, A is maximal amplitude in accumulation, k is the efflux rate constant, and t is time.

control Sf9 membranes = test: ATPase activity of control Sf9 membranes; assay type: biochemical
Description: (§3) The in vitro activity of the triphosphate of 5-CHInd (5-CHITP) against P-gp was evaluated through its ability to inhibit vinblastine-stimulated ATP hydrolysis. These experiments used purified P-gp membranes expressed and isolated in Sf9 insect cells (BD Biosciences). ATP hydrolysis was quantified by the amount of ^32Pi release from γ^32P-ATP as a function of time. Reactions containing vinblastine were initiated by the addition of membranes and quenched in trichloroacetic acid and ammonium heptamolybdate. Heptamolybdophosphoric acid was separated by organic phase extraction and the presence of ^32Pi was quantified by liquid scintillation counting. […] The inhibition of 5-CHITP is selective for P-gp as the ATPase activity of control Sf9 membranes is not inhibited whereas sodium orthovanadate inhibits by about 50%.

P-gp [6] = biological target: T1, P-gp; test: vinblastine-stimulated ATP hydrolysis by purified P-gp membranes (32Pi release); assay type: biochemical; design: endogenous in cells
Description: as §3

T1 sequence (P08183 whole entry): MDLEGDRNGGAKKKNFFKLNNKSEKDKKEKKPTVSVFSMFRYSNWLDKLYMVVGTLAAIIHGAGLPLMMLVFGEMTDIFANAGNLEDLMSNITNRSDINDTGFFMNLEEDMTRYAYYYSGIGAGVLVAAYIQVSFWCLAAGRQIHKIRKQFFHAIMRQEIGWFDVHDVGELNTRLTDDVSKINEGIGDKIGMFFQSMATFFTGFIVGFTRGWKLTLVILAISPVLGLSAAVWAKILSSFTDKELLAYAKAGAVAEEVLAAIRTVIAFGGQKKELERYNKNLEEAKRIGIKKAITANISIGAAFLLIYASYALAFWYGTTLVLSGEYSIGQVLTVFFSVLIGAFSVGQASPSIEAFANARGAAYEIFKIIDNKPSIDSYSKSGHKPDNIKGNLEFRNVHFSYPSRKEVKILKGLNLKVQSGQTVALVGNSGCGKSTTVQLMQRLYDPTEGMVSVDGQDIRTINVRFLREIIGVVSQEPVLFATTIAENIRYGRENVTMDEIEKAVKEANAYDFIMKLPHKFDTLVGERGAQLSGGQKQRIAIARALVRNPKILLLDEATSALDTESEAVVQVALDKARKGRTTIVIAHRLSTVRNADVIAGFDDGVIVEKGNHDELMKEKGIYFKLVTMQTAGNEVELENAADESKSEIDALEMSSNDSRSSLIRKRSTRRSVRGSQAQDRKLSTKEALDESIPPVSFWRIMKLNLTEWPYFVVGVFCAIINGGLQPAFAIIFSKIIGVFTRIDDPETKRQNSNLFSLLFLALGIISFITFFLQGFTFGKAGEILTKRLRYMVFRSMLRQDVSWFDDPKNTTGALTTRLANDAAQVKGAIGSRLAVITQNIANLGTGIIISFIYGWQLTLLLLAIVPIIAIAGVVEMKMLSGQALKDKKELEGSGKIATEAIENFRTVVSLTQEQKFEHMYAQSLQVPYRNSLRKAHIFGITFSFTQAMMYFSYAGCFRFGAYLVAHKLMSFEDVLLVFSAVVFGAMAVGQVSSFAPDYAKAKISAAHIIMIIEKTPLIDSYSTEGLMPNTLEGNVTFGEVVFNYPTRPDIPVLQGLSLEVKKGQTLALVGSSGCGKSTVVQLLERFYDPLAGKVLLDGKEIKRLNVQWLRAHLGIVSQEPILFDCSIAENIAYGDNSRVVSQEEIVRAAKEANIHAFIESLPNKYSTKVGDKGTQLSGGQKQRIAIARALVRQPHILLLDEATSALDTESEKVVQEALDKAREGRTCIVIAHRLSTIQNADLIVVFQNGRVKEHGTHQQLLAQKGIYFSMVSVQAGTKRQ
T2 sequence (P08183 whole entry): as above

SMILES: CN[C@@H]1C[C@H]2O[C@@](C)([C@@H]1OC)n1c3ccccc3c3c4c(c5c6ccccc6n2c5c31)C(=O)NC4 [staurosporine]
action as potentiating agent (P-gp [1]): does not act as a potentiating agent

SMILES: OC[C@H]1OC(n2ccc3cc(C4CCCCC4)ccc32)C[C@@H]1O (some centres unmarked) [5-CHInd, 5-cylclohexyl-1-indolyl-2-deoxyriboside]
accumulation of Hoechst dye (inhibition of P-gp export) (P-glycoprotein [2]): enhanced accumulation of the Hoechst dye | inhibition of p-glycoprotein activity (P-glycoprotein [3]): can inhibit the activity of p-glycoprotein | potentiation of vinblastine (FIG. 6) (SKOV3 cells): potentiation of vinblastine | potentiation of vinblastine (FIG. 6) (SKOV/VBL cells): potentiation of vinblastine | effect on accumulation or efflux of [3H]-vinblastine (CEM-C7 cells): no effect | cell cycle arrest (CDKs): induces cell cycle arrest | LD50 (leukemia cell lines): about 20 μg/mL | cytotoxic effect (flow cytometry, FIG. 2) (leukemia cell lines; leukemia cells, closely mimics staurosporine): rapid cytotoxic effect | potentiation of the effects of 5-fluorouracil (P-gp [4]): does not potentiate | potentiation of the effects of cisplatin (P-gp [4]): does not potentiate | potentiation of the effects of doxorobucin (P-gp [4]): potentiates | potentiation of the effects of paclitaxel (P-gp [4]): potentiates | accumulation of [3H]-vinblastine (P-gp [5]): significant accumulation | rate constant for drug efflux (P-gp [5]; compared to vehicle-treated cells): decrease in rate constant for drug efflux

inhibition of ATPase activity of control Sf9 membranes (control Sf9 membranes; sodium orthovanadate): about 50% | inhibition of ATPase activity of P-gp (P-gp [6]; 1 μM, compared with 52% by 50 μM 5-CHITP): comparable
SMILES: [Na+].[Na+].[Na+].[O]=[V]([O-])([O-])[O-] [sodium orthovanadate, reference compound]

SMILES: OC[C@H]1OC(n2ccc3cc(-c4ccccc4)ccc32)C[C@@H]1O (some centres unmarked) [5-PhInd]
cell death (leukemia cell lines; at the concentrations tested, data not shown): cause cell death

inhibition of ATPase activity of control Sf9 membranes (control Sf9 membranes; 5-CHITP): not inhibited | inhibition of ATPase activity of P-gp (P-gp [6]; 50 μM): 52%
SMILES: O=P(O)(O)OP(=O)(O)OP(=O)(O)OC[C@H]1O[C@@H](n2ccc3cc(C4CCCCC4)ccc32)C[C@@H]1O [5-CHITP]
